US8475800B2, “Phosphorylated derivatives of a U1-70K peptide and their use in the treatment of autoimmune pathologies” (Centre National de la Recherche Scientifique, priority 2001, dated 2013)
Square brackets hold non-standard residues; d marks the D form. Ends that are not written are not given here. pS = N[C@@H](COP(=O)(O)O)C(=O)O

Experiments:
[1] = tested on: antibodies of MRL/lpr lupic mice; assay: Recognition by antibodies of MRL/lpr lupic mice (ELISA titre); type: binding; details: compared with the non-phosphorylated parent peptide; FIG. 13
From the text: (§1) FIG. 13: recognition of the P140 peptide by the CD4^+ T lymphocytes (A) of MRL/lpr lupic mice; the graph on the left represents the proliferation of CD4^+ T cells expressed in stimulation indices as defined above in the presence of the 131-151 peptide, of the phosphorylated P137 and P140 peptides and of two scrambled peptides, phosphorylated or not phosphorylated (Sc and ScP); the positivity limit corresponds to 2.0; the graph on the right represents the secretion of IL-2 (mU/ml) in the presence of the 131-151 peptide, the P137 and P140 peptides and the Sc and ScP peptides; and by the antibodies (B) of MRL/lpr lupic mice; the results are expressed in titre of antibodies corresponding to the dilution allowing an O.D. value at 450 nm equal to 0.2 to be obtained in an ELISA test.

HLA-DR11 = assay: Binding to human MHC class II molecule HLA-DR11; details: peptide 0.01-100 μM; FIG. 19
Description: (§2) FIG. 19: binding of the 131-151 and P140 peptides to the human major histocompatibility complex class II molecules; the results are expressed as a percentage of binding of the peptides to the HLA-DR1, -DR4 and DR11 molecules; the percentage inhibition is calculated as a function of the O.D. values measured in the presence of various concentrations of 131-151 and P140 peptides (0.01-100 μM).

HLA-DR1 = assay: Binding to human MHC class II molecule HLA-DR1; details: peptide 0.01-100 μM; FIG. 19
Description: as §2

[2] = tested on: CD4+ T cells of MRL/lpr lupic mice; assay: Recognition by CD4+ T cells of MRL/lpr lupic mice (ex vivo proliferation, IL-2 secretion); type: cell-based
Description: (§3) FIG. 1: recognition of the 131-151 peptide of the 70K protein by the CD4+ T cells of MRL/lpr (right column) or NZB/W lupic mice (left column); the peptide concentrations are indicated on the x-axis, the proliferation of the CD4+ T cells of MRL/lpr and BW mice, represented on the y-axis of the graphs of the first line, is measured ex vivo in the presence of the various concentrations of 131-151 peptide of the 70K protein; the proliferation is expressed in stimulation indices corresponding to the radioactivity incorporated in the DNA of the cells (in counts per minute) in the presence of peptide on the incorporation of radioactivity in the absence of peptide; the secretion of IL-2, represented on the y-axis of the graphs of the second line, is measured in the supernatants after 24 hrs of culture by a bio-assay; the IL-2 concentration is determined with a standard range of recombinant IL-2 and is expressed in mU/ml.
as §1

HLA-DR4 = assay: Binding to human MHC class II molecule HLA-DR4; details: peptide 0.01-100 μM; FIG. 19
Description: as §2

[3] = tested on: pre-autoimmune MRL/lpr mice; assay: Administration to pre-autoimmune MRL/lpr mice, monitoring of disease development; type: in vivo
Description: The two peptides (phosphorylated in position 140 and non-phosphorylated) were used for a study of restoration of self-tolerance. These two peptides were injected by intravenous and intra-nasal route into preautoimmune mice, and the development of the disease in these mice was monitored.

[4] = tested on: major histocompatibility complex class II molecules (I-E^k, I-A^k, I-E^d, I-A^d); assay: Binding to murine MHC class II molecules (transfected fibroblasts, T hybridoma IL-2 competition); type: cell-based; details: murine (and human, as worded in b8); FIG. 2
Description: FIG. 2: binding of the 131-151 peptide to the molecules of the major histocompatibility complex of class II murines (I-E^k, I-A^k, I-E^d, I-A^d); fibroblasts transfected by the molecules I-E^k, or I-A^k, or I-E^d, or I-A^d are pre-incubated with different concentrations of the 131-151 peptide; after 30 minutes at 37° C., the 12-26CI or 16-33 analogue peptides of the β2-adrenergic receptor, as well as the respective T hybridomas which recognize these peptides in the adapted context (8I for I-E^k, E7E9 for I-A^k, 26.1 for I-E^d, and 26.2 for I-A^d) are added; the supernatants are recovered after 24 hrs of culture and the secretion of IL-2 is evaluated as previously; the results are expressed as a % inhibition representing the ability of the 131-151 peptide to inhibit the binding of the 12-26 CI and 16-33[…]2 analogue peptides to the class II molecules.

[5] = tested on: CD4+ T cells of NZB/W lupic mice; assay: Recognition by CD4+ T cells of NZB/W lupic mice; type: cell-based; details: FIG. 1
Description: as §3

[6] = tested on: antibodies of MRL/lpr lupic mice; details: among 20 overlapping peptides of the 70K protein; cited from earlier work
[7] = intravenous route, pre-autoimmune MRL/lpr mice, FIG. 14
[8] = in vitro, CD4+ T cells purified from the ganglia of MRL/lpr mice

Substance | recognition by the antibodies of lupic mice [1] | binding to HLA-DR11 (HLA-DR11) | binding to HLA-DR1 (HLA-DR1) | recognition by the CD4+ T cells of lupic mice ([2]; compared with the non-phosphorylated parent peptide, FIG. 13) | binding to HLA-DR4 (HLA-DR4) | appearance of glomerulonephritis ([3]; intranasal route, pre-autoimmune MRL/lpr mice, FIG. 14) | appearance of glomerulonephritis [3, 7] | production of antibodies directed against the DNA [3, 7] | survival of animals [3, 7] | binding to major histocompatibility complex class II molecules [4] | epitope of the 70K protein in the NZB/W mouse [5] | proliferation of CD4+ T cells [2, 8] | secretion of IL-2 by CD4+ T cells [2, 8] | recognition by the antibodies of MRL/lpr lupic mice [6] | proteinuria ([3]; group injected with the peptide, versus saline control) | effect of administration on anti-DNA antibodies, glomerulonephritis and survival ([3]; pre-autoimmune mice, listed as parent peptide) | mice survived ([3]; to 35 weeks, p=0.2 compared to the control mice)
P140: sequence SEQ ID NO: 1 (RIHMVYSKRSGKPRGYAFIEY) in which the serine in position 10 is phosphorylated (RIHMVYSKR[pS]GKPRGYAFIEY; listed as Homo sapiens) | to the same extent as or even to a greater extent than the non-phosphorylated peptide | capable of binding | capable of binding | to the same extent as or even to a greater extent than the non-phosphorylated peptide | capable of binding | not by intranasal route | delays the appearance of glomerulonephritis | reduces the production of large numbers of antibodies directed against the DNA | prolongs the survival of animals |  |  |  |  |  |  |  | 
RIHMVYSKRSGKPRGYAFIEY (listed as Homo sapiens) [131-151] |  | capable of binding | capable of binding |  | capable of binding |  |  |  |  | capable of binding | major epitope | capable of stimulating | capable of stimulating | recognized very early | hardly reduced | does not on the other hand induce any statistically significant effect | 25%
